Test results reported in patent US20250288589A1, “PYRIDOPYRIMIDINES AND METHODS OF THEIR USE” (Kineta, Inc., priority 2021, published 2025).
Structures can show the parent of a compound that is named as a salt.

target: T1, full-length human PIKFYVE (Homo sapiens, UniProt Q9Y2I7, L932S/Q1183K/Q995L/S1033A/S696N/T998S); assay: PIKfyve biochemical assay (ADP-Glo Kinase assay, Carna Biosciences); details: GST-PIKFYVE, 10 μM to 3 nM in duplicate, read-out: hPIKfyve IC50
T1 construct: A full-length human PIKFYVE [1-2098(end) amino acids and S696N, L932S, Q995L, T998S, S1033A and Q1183K; purchased Carna Biosciences; host or cells: baculovirus expression system
T1 sequence (Q9Y2I7 whole entry S696N/L932S/Q995L/T998S/S1033A/Q1183K): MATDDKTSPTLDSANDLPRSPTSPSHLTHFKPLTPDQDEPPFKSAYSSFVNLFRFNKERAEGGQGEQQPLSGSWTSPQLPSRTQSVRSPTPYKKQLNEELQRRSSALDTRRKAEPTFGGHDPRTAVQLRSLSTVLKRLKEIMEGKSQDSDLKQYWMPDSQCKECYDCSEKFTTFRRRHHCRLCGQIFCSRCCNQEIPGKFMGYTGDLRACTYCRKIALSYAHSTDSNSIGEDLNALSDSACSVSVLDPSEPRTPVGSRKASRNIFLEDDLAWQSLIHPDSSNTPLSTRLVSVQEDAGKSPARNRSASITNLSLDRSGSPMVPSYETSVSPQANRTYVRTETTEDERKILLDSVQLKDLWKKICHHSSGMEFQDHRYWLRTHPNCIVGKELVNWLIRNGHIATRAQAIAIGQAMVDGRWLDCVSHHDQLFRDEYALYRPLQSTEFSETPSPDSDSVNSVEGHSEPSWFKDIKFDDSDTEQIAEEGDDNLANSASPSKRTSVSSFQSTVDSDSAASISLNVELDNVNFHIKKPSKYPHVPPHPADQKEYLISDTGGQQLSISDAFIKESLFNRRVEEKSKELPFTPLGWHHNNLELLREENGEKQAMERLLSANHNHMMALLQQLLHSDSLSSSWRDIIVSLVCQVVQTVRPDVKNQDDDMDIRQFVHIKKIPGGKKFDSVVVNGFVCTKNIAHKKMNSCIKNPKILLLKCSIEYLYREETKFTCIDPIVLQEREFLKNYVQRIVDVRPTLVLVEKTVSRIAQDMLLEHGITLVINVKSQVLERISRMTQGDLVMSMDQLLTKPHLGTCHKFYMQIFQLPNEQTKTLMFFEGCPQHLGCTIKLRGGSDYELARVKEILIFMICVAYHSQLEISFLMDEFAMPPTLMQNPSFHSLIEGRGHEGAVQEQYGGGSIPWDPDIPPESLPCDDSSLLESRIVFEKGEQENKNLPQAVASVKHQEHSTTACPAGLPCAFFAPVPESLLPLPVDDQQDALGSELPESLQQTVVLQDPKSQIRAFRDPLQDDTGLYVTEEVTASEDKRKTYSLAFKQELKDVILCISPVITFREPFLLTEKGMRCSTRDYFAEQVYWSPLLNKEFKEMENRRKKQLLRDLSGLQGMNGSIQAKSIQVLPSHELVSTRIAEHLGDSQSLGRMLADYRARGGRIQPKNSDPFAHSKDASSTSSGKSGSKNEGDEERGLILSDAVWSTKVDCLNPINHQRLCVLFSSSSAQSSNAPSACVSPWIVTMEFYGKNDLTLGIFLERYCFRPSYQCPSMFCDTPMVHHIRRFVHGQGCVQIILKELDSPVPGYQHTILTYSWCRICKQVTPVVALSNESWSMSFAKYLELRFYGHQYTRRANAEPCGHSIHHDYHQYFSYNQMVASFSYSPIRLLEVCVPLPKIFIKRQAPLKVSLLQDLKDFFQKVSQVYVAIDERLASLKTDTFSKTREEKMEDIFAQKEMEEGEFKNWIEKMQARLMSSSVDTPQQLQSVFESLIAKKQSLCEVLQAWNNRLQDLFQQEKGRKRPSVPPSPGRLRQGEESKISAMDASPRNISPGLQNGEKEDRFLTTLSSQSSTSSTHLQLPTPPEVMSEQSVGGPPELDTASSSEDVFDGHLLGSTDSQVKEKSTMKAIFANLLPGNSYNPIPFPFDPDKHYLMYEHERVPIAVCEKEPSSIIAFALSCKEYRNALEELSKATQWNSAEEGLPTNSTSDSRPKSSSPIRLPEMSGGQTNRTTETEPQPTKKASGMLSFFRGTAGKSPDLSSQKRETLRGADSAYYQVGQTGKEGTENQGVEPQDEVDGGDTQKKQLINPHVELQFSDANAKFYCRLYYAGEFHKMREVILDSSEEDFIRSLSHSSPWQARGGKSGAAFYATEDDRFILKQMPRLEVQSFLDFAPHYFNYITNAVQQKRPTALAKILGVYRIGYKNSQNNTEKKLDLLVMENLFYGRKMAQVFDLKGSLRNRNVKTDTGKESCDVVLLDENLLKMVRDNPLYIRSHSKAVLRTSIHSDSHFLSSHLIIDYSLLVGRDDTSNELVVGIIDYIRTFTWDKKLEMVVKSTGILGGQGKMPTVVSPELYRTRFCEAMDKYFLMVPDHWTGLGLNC
From the text: (§1) PIKfyve Biochemical Assay. The biochemical PIKFyve inhibition assays were run by Carna Biosciences according to proprietary methodology based on the Promega ADP-Glo™ Kinase assay. A full-length human PIKFYVE [1-2098(end) amino acids and S696N, L932S, Q995L, T998S, S1033A and Q1183K of the protein having the sequence set forth in NCBI Reference Sequence No. NP_055855.2] was expressed as N-terminal GST-fusion protein (265 kDa) using baculovirus expression system. GST-PIKFYVE was purified by using glutathione sepharose chromatography and used in an ADP-Glo™ Kinase assay (Promega). Reactions were set up by adding the test compound solution, substrate solution, ATP solution and kinase solution, each at 4× final concentrations. Reactions were prepared with assay buffer (50 mM MOPS, 1 mM DTT, pH7.2), mixed, and incubated in black 384 well polystyrene plates for 1 hour at room temperature. ADP-Glo™ reagent was then added for 40 minutes, followed by kinase detection reagent for an additional 40 minutes. The kinase activity was evaluated by detecting relative light units on a luminescence plate reader. Samples were run in duplicate from 10 μM to 3 nM. […] IC50 values were calculated from concentration vs % inhibition curves by fitting to a four-parameter logistic curve.
as §1, with “The” for “PIKfyve Biochemical Assay. The”, “accession number” for “the protein having the sequence set forth in NCBI Reference Sequence No.”, “uM” for “μM”

Compound	IC50
Cc1cnc(-c2ccccc2)nc1-c1nc(N2CCOCC2)c2ncccc2n1 [Compound 96, 4-(2-(5-methyl-2-phenylpyrimidin-4-yl)pyrido[3,2-d]pyrimidin-4-yl)morpholine]	1000 to 10000 nM
c1cc(-c2nc(N3CCOCC3)c3ncccc3n2)nc(C2CCNCC2)c1 [Compound 92, 4-[2-[6-(4-piperidyl)-2-pyridyl]pyrido[3,2-d]pyrimidin-4-yl]morpholine]	1000 to 10000 nM
O=c1[nH]c(-c2ccccc2)nn1-c1nc(N2CCOCC2)c2ncccc2n1 [Compound 82, 2-(4-morpholinopyrido[3,2-d]pyrimidin-2-yl)-5-phenyl-4H-1,2,4-triazol-3-one]	100 to 1000 nM
c1cncc(-c2ccn(-c3nc(N4CCOCC4)c4ncc(-c5ccc6c(c5)OCCO6)cc4n3)n2)c1 [Compound 49, 4-(7-(2,3-dihydrobenzo[b][1,4]dioxin-6-yl)-2-(3-(pyridin-3-yl)-1H-pyrazol-1-yl)pyrido[3,2-d]pyrimidin-4-yl)morpholine]	1000 to 10000 nM
c1cnc2c(N3CCOCC3)nc(-c3n[nH]c4ccccc34)nc2c1 [Compound 69, 4-[2-(1H-indazol-3-yl)pyrido[3,2-d]pyrimidin-4-yl]morpholine]	1000 to 10000 nM
Fc1cccc(Nc2nc(N3CCOCC3)c3ncc(Cc4cccnc4)cc3n2)c1 [Compound 129, N-(3-fluorophenyl)-4-morpholino-7-(pyridin-3-ylmethyl)pyrido[3,2-d]pyrimidin-2-amine]	100 to 1000 nM
c1ccc(-c2cn(-c3nc(N4CCOCC4)c4ncccc4n3)nn2)cc1 [Compound 74, 4-(2-(4-phenyl-1H-1,2,3-triazol-1-yl)pyrido[3,2-d]pyrimidin-4-yl)morpholine]	100 to 1000 nM
c1cnc2c(N3CCOCC3)nc(-c3ccnc(-c4ccoc4)n3)nc2c1 [Compound 98, 4-(2-(2-(furan-3-yl)pyrimidin-4-yl)pyrido[3,2-d]pyrimidin-4-yl)morpholine]	1000 to 10000 nM
Cc1ccc2c(c1)nnn2-c1nc(N2CCOCC2)c2ncccc2n1 [Compound 76, 4-(2-(5-methyl-1H-benzo[d][1,2,3]triazol-1-yl)pyrido[3,2-d]pyrimidin-4-yl)morpholine]	100 to 1000 nM
COc1cccc(-c2nccc(-c3nc(N4CCOCC4)c4ncccc4n3)n2)c1 [Compound 100, 4-(2-(2-(3-methoxyphenyl)pyrimidin-4-yl)pyrido[3,2-d]pyrimidin-4-yl)morpholine]	100 to 1000 nM
c1coc(-c2nccc(-c3nc(N4CCOCC4)c4ncccc4n3)n2)c1 [Compound 99, 4-(2-(2-(furan-2-yl)pyrimidin-4-yl)pyrido[3,2-d]pyrimidin-4-yl)morpholine]	1000 to 10000 nM
c1ccc2c(c1)cnn2-c1nc(N2CCOCC2)c2ncccc2n1 [Compound 109, 4-(2-indazol-1-ylpyrido[3,2-d]pyrimidin-4-yl)morpholine]	100 to 1000 nM
c1cc(-c2ccn(-c3nc(N4CCOCC4)c4ncc(C5CCOCC5)cc4n3)n2)ccn1 [Compound 51, 4-[2-[3-(4-pyridyl)pyrazol-1-yl]-7-tetrahydropyran-4-yl-pyrido[3,2-d]pyrimidin-4-yl]morpholine]	1000 to 10000 nM
c1cc(-c2ccn(-c3nc(N4CCOCC4)c4ncc(C5CCOCC5)cc4n3)n2)ncn1 [Compound 53, 4-[2-(3-pyrimidin-4-ylpyrazol-1-yl)-7-tetrahydropyran-4-yl-pyrido[3,2-d]pyrimidin-4-yl]morpholine]	> 10000 nM
COc1ccc(-c2ccn(-c3nc(N4CCOCC4)c4ncccc4n3)n2)cc1 [Compound 17, 4-(2-(3-(4-methoxyphenyl)-1H-pyrazol-1-yl)pyrido[3,2-d]pyrimidin-4-yl)morpholine]	100 to 1000 nM
c1cncc(-c2ccn(-c3nc(N4CCOCC4)c4ncc(C5CCOCC5)cc4n3)n2)c1 [Compound 52, 4-[2-[3-(3-pyridyl)pyrazol-1-yl]-7-tetrahydropyran-4-yl-pyrido[3,2-d]pyrimidin-4-yl]morpholine]	1000 to 10000 nM
c1cc(Oc2nc(N3CCOCC3)c3ncccc3n2)cc(-c2cn[nH]c2)c1 [Compound 47, 4-(2-(3-(1H-pyrazol-4-yl)phenoxy)pyrido[3,2-d]pyrimidin-4-yl)morpholine]	> 10000 nM
CC(C)(C)OC(=O)N1CCC(Cc2ccn(-c3nc(N4CCOCC4)c4ncccc4n3)n2)C1 (stereo not shown) [Compound 63, tert-butyl 3-[[1-(4-morpholinopyrido[3,2-d]pyrimidin-2-yl)pyrazol-3-yl]methyl]pyrrolidine-1-carboxylate]	1000 to 10000 nM
c1cnc2c(N3CCOCC3)nc(-c3ccnc(C4CCNCC4)n3)nc2c1 [Compound 84, 4-[2-[2-(4-piperidyl)pyrimidin-4-yl]pyrido[3,2-d]pyrimidin-4-yl]morpholine]	> 10000 nM

The remaining lines, values ahead:

IC50	Compound
100 to 1000 nM	c1ccc(-c2cncc(-c3nc(N4CCOCC4)c4ncccc4n3)n2)cc1 [Compound 97, 4-(2-(6-phenylpyrazin-2-yl)pyrido[3,2-d]pyrimidin-4-yl)morpholine]
10 to 100 nM	c1ccc(-c2ccn(-c3nc(N4CCOCC4)c4ncc(-c5ccncc5)cc4n3)n2)cc1 [Compound 48, 4-(2-(3-phenyl-1H-pyrazol-1-yl)-7-(pyridin-4-yl)pyrido[3,2-d]pyrimidin-4-yl)morpholine]
< 10 nM	COc1cccc(-c2cnn(-c3nc(N4CCOCC4)c4ncc(CO)cc4n3)c2)c1 [Compound 45, (2-(4-(3-methoxyphenyl)-1H-pyrazol-1-yl)-4-morpholinopyrido[3,2-d]pyrimidin-7-yl)methanol]
10 to 100 nM	c1ccc(-c2nccc(-c3nc(N4CCOCC4)c4ncccc4n3)n2)cc1 [Compound 90, 4-(2-(2-phenylpyrimidin-4-yl)pyrido[3,2-d]pyrimidin-4-yl)morpholine]
10 to 100 nM	Cc1cccc(/C=N/Oc2nc(N3CCOCC3)c3ncccc3n2)c1 [Compound 116, (E)-3-methylbenzaldehyde O-(4-morpholinopyrido[3,2-d]pyrimidin-2-yl) oxime]
10 to 100 nM	c1ccc(-c2cnn(-c3nc(N4CCOCC4)c4ncccc4n3)n2)cc1 [Compound 75, 4-(2-(4-phenyl-2H-1,2,3-triazol-2-yl)pyrido[3,2-d]pyrimidin-4-yl)morpholine hydrochloride]
< 10 nM	Oc1cccc(-c2cnn(-c3nc(N4CCOCC4)c4ncccc4n3)c2)c1 [Compound 46, 3-(1-(4-morpholinopyrido[3,2-d]pyrimidin-2-yl)-1H-pyrazol-4-yl)phenol]
< 10 nM	COC(=O)c1cnc2c(N3CCOCC3)nc(-n3cc(-c4cccc(OC)c4)cn3)nc2c1 [Compound 43, methyl 2-(4-(3-methoxyphenyl)-1H-pyrazol-1-yl)-4-morpholinopyrido[3,2-d]pyrimidine-7-carboxylate]
< 10 nM	c1ccc(-c2cnn(-c3nc(N4CCOCC4)c4ncc(C5CCOCC5)cc4n3)c2)cc1 [Compound 10, 4-[2-(4-phenylpyrazol-1-yl)-7-tetrahydropyran-4-yl-pyrido[3,2-d]pyrimidin-4-yl]morpholine]
10 to 100 nM	CN1CCC(c2cnc3c(N4CCOCC4)nc(-n4ccc(-c5ccccc5)n4)nc3c2)CC1 [Compound 37, 4-(7-(1-methylpiperidin-4-yl)-2-(3-phenyl-1H-pyrazol-1-yl)pyrido[3,2-d]pyrimidin-4-yl)morpholine]
< 10 nM	Cc1cccc(-c2cc(O)n(-c3nc(N4CCOCC4)c4ncc(-c5ccoc5)cc4n3)n2)c1 [Compound 70, 1-(7-(furan-3-yl)-4-morpholinopyrido[3,2-d]pyrimidin-2-yl)-3-m-tolyl-1H-pyrazol-5-ol]
< 10 nM	COc1cccc(-c2cnn(-c3nc(N4CCOCC4)c4ncccc4n3)c2)c1 [Compound 28, 4-(2-(4-(3-methoxyphenyl)-1H-pyrazol-1-yl)pyrido[3,2-d]pyrimidin-4-yl)morpholine]
< 10 nM	COc1cnc2c(N3CCOCC3)nc(-n3ccc(-c4cccc(C)c4)n3)nc2c1 [Compound 54, 4-(7-methoxy-2-(3-m-tolyl-1H-pyrazol-1-yl)pyrido[3,2-d]pyrimidin-4-yl)morpholine]
10 to 100 nM	Oc1ccc(-c2ccccc2)nc1-c1nc(N2CCOCC2)c2ncccc2n1 [Compound 108, 2-(4-morpholinopyrido[3,2-d]pyrimidin-2-yl)-6-phenylpyridin-3-ol]
10 to 100 nM	c1ccc(-c2ccn(-c3nc(N4CCOCC4)c4nc(C5CCOCC5)ccc4n3)n2)cc1 [Compound 9, 4-[2-(3-phenylpyrazol-1-yl)-6-tetrahydropyran-4-yl-pyrido[3,2-d]pyrimidin-4-yl]morpholine]
